Holding throughout (assay type): functional, cell-based
In assay [1] the test system is SMMC-7721. The assay can be described thus: Antiproliferative activity against human SMMC-7721 cells assessed as reduction in cell viability incubated for 48 hrs by MTT assay. (Formazan colour is commonly taken as a measure of viable cells.)
Assay [2] has as its system HepG2. As to the kind of experiment: Antiproliferative activity against human HepG2 cells assessed as reduction in cell viability incubated for 48 hrs by MTT assay. Conditions: HepG2, 48 h; call rule not given here.
Assay [3] relates to Hep 3B2. The assay can be described thus: Antiproliferative activity against human Hep3B cells assessed as reduction in cell viability incubated for 48 hrs by MTT assay.
Setting [4] is: Homo sapiens, SMMC-7721, 48 h, read-out: IC50.

For `CCCCN(CCCC)CCOc1cc(O)c2c(=O)c(O[C@H]3O[C@H](C)[C@@H](O)[C@H](O)[C@@H]3O)c(-c3ccc(OC)cc3)oc2c1CC=C(C)C`, the IC50 entry in assay [1] (smmc-7721) was “Not Active”; in assay [2], > 10 µM; in assay [3], > 10 µM.

Regarding `COc1ccc(-c2oc3c(CC=C(C)C)c(OCCCN4CCC(C)CC4)cc(O)c3c(=O)c2O[C@H]2O[C@H](C)[C@@H](O)[C@H](O)[C@@H]2O)cc1`, the IC50 result was “Not Active” in assay [1] (smmc-7721), > 10 µM in assay [2] and > 10 µM in assay [3].

Regarding `COc1ccc(-c2oc3c(CC=C(C)C)c(OCCCCCC(=O)NO)cc(O)c3c(=O)c2O[C@H]2O[C@H](C)[C@@H](O)[C@H](O)[C@@H]2O)cc1`, the IC50 in assay [1] (setting [4]), in assay [2] and in assay [3] was > 10 µM each time.

For `COc1ccc(-c2oc3c(CC=C(C)C)c(OCCCCN4CCC(C)CC4)cc(O)c3c(=O)c2O[C@H]2O[C@H](C)[C@@H](O)[C@H](O)[C@@H]2O)cc1`, the IC50 entry is “Not Active” in assay [1] (smmc-7721), > 10 µM in assay [2] and > 10 µM in assay [3].

On to `CCN(CC)C[C@@H](O)COc1cc(O)c2c(=O)c(O[C@H]3O[C@H](C)[C@@H](O)[C@H](O)[C@@H]3O)c(-c3ccc(OC)cc3)oc2c1CC=C(C)C`, for which the figures for the IC50 in assay [1] (setting [4]), in assay [2] and in assay [3] were > 10 µM, > 10 µM and 8.3 µM, respectively.

As to `COc1ccc(-c2oc3c(CC=C(C)C)c(OCCOCCN4CCC(O)CC4)cc(O)c3c(=O)c2O[C@H]2O[C@H](C)[C@@H](O)[C@H](O)[C@@H]2O)cc1`, the IC50 result in assay [1] (smmc-7721) is “Not Active”; in assay [2], > 10 µM; in assay [3], > 10 µM.

Regarding `COc1ccc(-c2oc3c(CC=C(C)C)c(OCCCN4CCCC4)cc(O)c3c(=O)c2O[C@H]2O[C@H](C)[C@@H](O)[C@H](O)[C@@H]2O)cc1`, the IC50 is 6.1 µM in assay [1] (setting [4]), 6.3 µM in assay [2] and 7.6 µM in assay [3].

Regarding `COc1ccc(-c2oc3c(CC=C(C)C)c(OC[C@H](O)CN4CCCC4)cc(O)c3c(=O)c2O[C@H]2O[C@H](C)[C@@H](O)[C@H](O)[C@@H]2O)cc1`, the IC50 in assay [1] (setting [4]), in assay [2] and in assay [3] was > 10 µM throughout.

Turning to `COc1ccc(-c2oc3c(CC=C(C)C)c(OCCCCN4CCNCC4)cc(O)c3c(=O)c2O[C@H]2O[C@H](C)[C@@H](O)[C@H](O)[C@@H]2O)cc1`, the 50% inhibitory concentration (IC50) entry in assay [1] (smmc-7721) was “Not Active”; in assay [2], 7.4 µM; in assay [3] it was 8 µM.

Consider `COc1ccc(-c2oc3c(CC=C(C)C)c(OCCOCCN4CCNCC4)cc(O)c3c(=O)c2O[C@H]2O[C@H](C)[C@@H](O)[C@H](O)[C@@H]2O)cc1`, for which the IC50 entry in assay [1] (smmc-7721) is “Not Active”; in assay [2], > 10 µM; in assay [3] it was > 10 µM.

Consider `COc1ccc(-c2oc3c(CC=C(C)C)c(OCCOCCN4CCOCC4)cc(O)c3c(=O)c2O[C@H]2O[C@H](C)[C@@H](O)[C@H](O)[C@@H]2O)cc1`, for which the IC50 entry in assay [1] (smmc-7721) is “Not Active”; in assay [2], > 10 µM; in assay [3] it was > 10 µM.

As to `COc1ccc(-c2oc3c(CC=C(C)C)c(OCCCN(C)C)cc(O)c3c(=O)c2O[C@H]2O[C@H](C)[C@@H](O)[C@H](O)[C@@H]2O)cc1`, the figures for the IC50 entry in assay [1] (smmc-7721), in assay [2] and in assay [3] were “Not Active”, > 10 µM and > 10 µM, respectively.

On to `COc1ccc(-c2oc3c(CC=C(C)C)c(OCCOCCOCCN4CCCC4)cc(O)c3c(=O)c2O[C@H]2O[C@H](C)[C@@H](O)[C@H](O)[C@@H]2O)cc1`, for which the IC50 in assay [1] (setting [4]), in assay [2] and in assay [3] was > 10 µM throughout.

Regarding `CCN(CC)CCOCCOCCOc1cc(O)c2c(=O)c(O[C@H]3O[C@H](C)[C@@H](O)[C@H](O)[C@@H]3O)c(-c3ccc(OC)cc3)oc2c1CC=C(C)C`, the IC50 in assay [1] (setting [4]), in assay [2] and in assay [3] was > 10 µM throughout.

As for `CNC(=O)c1cc(Oc2ccc(NC(=O)Nc3ccc(Cl)c(C(F)(F)F)c3)cc2)ccn1` [SORAFENIB], the IC50 in assay [1] (setting [4]) is 8.8 µM; in assay [2], 5.5 µM; in assay [3], 7.7 µM.

With `COc1ccc(-c2oc3c(CC=C(C)C)c(OCCN)cc(O)c3c(=O)c2O[C@H]2O[C@H](C)[C@@H](O)[C@H](O)[C@@H]2O)cc1`, the IC50 entry was “Not Active” in assay [1] (smmc-7721), > 10 µM in assay [2] and > 10 µM in assay [3].

In the case of `COc1ccc(-c2oc3c(CC=C(C)C)c(OCCCN4CCNCC4)cc(O)c3c(=O)c2O[C@H]2O[C@H](C)[C@@H](O)[C@H](O)[C@@H]2O)cc1`, the values for the IC50 entry in assay [1] (smmc-7721), in assay [2] and in assay [3] were “Not Active”, > 10 µM and 3.8 µM, respectively.

On to `COc1ccc(-c2oc3c(CC=C(C)C)c(OCCN4CCC(N5CCCCC5)CC4)cc(O)c3c(=O)c2O[C@H]2O[C@H](C)[C@@H](O)[C@H](O)[C@@H]2O)cc1`, for which the IC50 entry was “Not Active” in assay [1] (smmc-7721), > 10 µM in assay [2] and > 10 µM in assay [3].

As for `COc1ccc(-c2oc3c(CC=C(C)C)c(OCCN4CCNCC4)cc(O)c3c(=O)c2O[C@H]2O[C@H](C)[C@@H](O)[C@H](O)[C@@H]2O)cc1`, the IC50 result was “Not Active” in assay [1] (smmc-7721), > 10 µM in assay [2] and > 10 µM in assay [3].

Turning to `CCN(CC)CCCCOc1cc(O)c2c(=O)c(O[C@H]3O[C@H](C)[C@@H](O)[C@H](O)[C@@H]3O)c(-c3ccc(OC)cc3)oc2c1CC=C(C)C`, the IC50 in assay [1] (setting [4]) was 6.4 µM; in assay [2], 3.8 µM; in assay [3], 5.4 µM.

For `CCCCN(CCCC)CCCCOc1cc(O)c2c(=O)c(O[C@H]3O[C@H](C)[C@@H](O)[C@H](O)[C@@H]3O)c(-c3ccc(OC)cc3)oc2c1CC=C(C)C`, the IC50 entry in assay [1] (smmc-7721) was “Not Active”; in assay [2], 9.8 µM; in assay [3], > 10 µM.

As for `COc1ccc(-c2oc3c(CC=C(C)C)c(OCCCCN4CCOCC4)cc(O)c3c(=O)c2O[C@H]2O[C@H](C)[C@@H](O)[C@H](O)[C@@H]2O)cc1`, the IC50 entry was “Not Active” in assay [1] (smmc-7721), > 10 µM in assay [2] and > 10 µM in assay [3].

In the case of `COc1ccc(-c2oc3c(CC=C(C)C)c(OCCOCCN4CCCC4)cc(O)c3c(=O)c2O[C@H]2O[C@H](C)[C@@H](O)[C@H](O)[C@@H]2O)cc1`, the IC50 in assay [1] (setting [4]) was 8.6 µM; in assay [2], 8.6 µM; in assay [3], 6.4 µM.

As to `COc1ccc(-c2oc3c(CC=C(C)C)c(OCCCCCCN4CCCC4)cc(O)c3c(=O)c2O[C@H]2O[C@H](C)[C@@H](O)[C@H](O)[C@@H]2O)cc1`, the IC50 in assay [1] (setting [4]) was 4.8 µM; in assay [2], 2.5 µM; in assay [3], 7.6 µM.

`COc1ccc(-c2oc3c(CC=C(C)C)c(OCCCN4CCC(O)CC4)cc(O)c3c(=O)c2O[C@H]2O[C@H](C)[C@@H](O)[C@H](O)[C@@H]2O)cc1`: the IC50 entry in assay [1] (smmc-7721) was “Not Active”; in assay [2] it was > 10 µM; in assay [3] it was 8.6 µM.

Turning to `COc1ccc(-c2oc3c(CC=C(C)C)c(OCCCCN4CCC(N5CCCCC5)CC4)cc(O)c3c(=O)c2O[C@H]2O[C@H](C)[C@@H](O)[C@H](O)[C@@H]2O)cc1`, the IC50 in assay [1] (setting [4]) came to 6.4 µM; in assay [2], 7.6 µM; in assay [3] it was 3.9 µM.

`COc1ccc(-c2oc3c(CC=C(C)C)c(OCCN4CCC(O)CC4)cc(O)c3c(=O)c2O[C@H]2O[C@H](C)[C@@H](O)[C@H](O)[C@@H]2O)cc1`: the IC50 result in assay [1] (smmc-7721) is “Not Active”; in assay [2], > 10 µM; in assay [3] it was > 10 µM.

Turning to `COc1ccc(-c2oc3c(CC=C(C)C)c(OCCOCCOCCOCCN4CCCC4)cc(O)c3c(=O)c2O[C@H]2O[C@H](C)[C@@H](O)[C@H](O)[C@@H]2O)cc1`, the results for the IC50 in assay [1] (setting [4]), in assay [2] and in assay [3] were > 10 µM, > 10 µM and 9.8 µM, respectively.

In the case of `COc1ccc(-c2oc3c(CC=C(C)C)c(OCCCCN(C)C)cc(O)c3c(=O)c2O[C@H]2O[C@H](C)[C@@H](O)[C@H](O)[C@@H]2O)cc1`, the figures for the IC50 entry in assay [1] (smmc-7721), in assay [2] and in assay [3] were “Not Active”, > 10 µM and 8.7 µM, respectively.

Take `COc1ccc(-c2oc3c(CC=C(C)C)c(OCCCN4CCC(N5CCCCC5)CC4)cc(O)c3c(=O)c2O[C@H]2O[C@H](C)[C@@H](O)[C@H](O)[C@@H]2O)cc1`: the IC50 was > 10 µM in assay [1] (setting [4]), 6.6 µM in assay [2] and 5.6 µM in assay [3].

For the molecule `CCN(CC)CCCOc1cc(O)c2c(=O)c(O[C@H]3O[C@H](C)[C@@H](O)[C@H](O)[C@@H]3O)c(-c3ccc(OC)cc3)oc2c1CC=C(C)C`, the IC50 in assay [1] (setting [4]) is > 10 µM; in assay [2], 5.5 µM; in assay [3], > 10 µM.

Regarding `COc1ccc(-c2oc3c(CC=C(C)C)c(OCCCCN)cc(O)c3c(=O)c2O[C@H]2O[C@H](C)[C@@H](O)[C@H](O)[C@@H]2O)cc1`, the IC50 is > 10 µM in assay [1] (setting [4]), 4.7 µM in assay [2] and 4.9 µM in assay [3].

On to `COc1ccc(-c2oc3c(CC=C(C)C)c(OCCCCN4CCCC4)cc(O)c3c(=O)c2O[C@H]2O[C@H](C)[C@@H](O)[C@H](O)[C@@H]2O)cc1`, for which the half-inhibitory concentration (IC50) in assay [1] (setting [4]) was > 10 µM; in assay [2] it was 3 µM; in assay [3] it was 4 µM.

On to `COc1ccc(-c2oc3c(CC=C(C)C)c(OCCCN4CCOCC4)cc(O)c3c(=O)c2O[C@H]2O[C@H](C)[C@@H](O)[C@H](O)[C@@H]2O)cc1`, for which the IC50 in assay [1] (setting [4]) is > 10 µM; in assay [2] it was 7.4 µM; in assay [3] it was 8 µM.

With `COc1ccc(-c2oc3c(CC=C(C)C)c(OCCCC(=O)NO)cc(O)c3c(=O)c2O[C@H]2O[C@H](C)[C@@H](O)[C@H](O)[C@@H]2O)cc1`, the IC50 in assay [1] (setting [4]), in assay [2] and in assay [3] was > 10 µM each time.

With `COc1ccc(-c2oc3c(CC=C(C)C)c(OCCN(C)C)cc(O)c3c(=O)c2O[C@H]2O[C@H](C)[C@@H](O)[C@H](O)[C@@H]2O)cc1`, the IC50 result in assay [1] (smmc-7721) was “Not Active”; in assay [2], 9.2 µM; in assay [3], > 10 µM.

Turning to `CCN(CC)CCOCCOCCOCCOc1cc(O)c2c(=O)c(O[C@H]3O[C@H](C)[C@@H](O)[C@H](O)[C@@H]3O)c(-c3ccc(OC)cc3)oc2c1CC=C(C)C`, the IC50 in assay [1] (setting [4]) was > 10 µM; in assay [2] it was 7.1 µM; in assay [3] it was 7.2 µM.

A word on the IC50: it is the concentration that inhibits the measured activity by half.

Source of the values: ChEMBL document CHEMBL5226390, “Synthesis and Structure-Activity Analysis of Icaritin Derivatives as Potential Tumor Growth Inhibitors of Hepatocellular Carcinoma Cells” (J Nat Prod, 2023).
